Results as given in patent publication US9403830B2, “Inhibitors of leukotriene production” (Boehringer Ingelheim International GmbH, priority 2012, dated 2016).

How the values were obtained:
[1] = target: T1, human LTA4 hydrolase (Homo sapiens, UniProt P09960); experiment: LTA4H Enzyme assay (peptidase, Arg-AMC cleavage); assay type: biochemical; conditions: LTA4H enzyme 1 nM, Arg-AMC substrate 50 μM, room temperature 1 h, fluorescence 380/460 nm
T1 sequence (P09960 1-611): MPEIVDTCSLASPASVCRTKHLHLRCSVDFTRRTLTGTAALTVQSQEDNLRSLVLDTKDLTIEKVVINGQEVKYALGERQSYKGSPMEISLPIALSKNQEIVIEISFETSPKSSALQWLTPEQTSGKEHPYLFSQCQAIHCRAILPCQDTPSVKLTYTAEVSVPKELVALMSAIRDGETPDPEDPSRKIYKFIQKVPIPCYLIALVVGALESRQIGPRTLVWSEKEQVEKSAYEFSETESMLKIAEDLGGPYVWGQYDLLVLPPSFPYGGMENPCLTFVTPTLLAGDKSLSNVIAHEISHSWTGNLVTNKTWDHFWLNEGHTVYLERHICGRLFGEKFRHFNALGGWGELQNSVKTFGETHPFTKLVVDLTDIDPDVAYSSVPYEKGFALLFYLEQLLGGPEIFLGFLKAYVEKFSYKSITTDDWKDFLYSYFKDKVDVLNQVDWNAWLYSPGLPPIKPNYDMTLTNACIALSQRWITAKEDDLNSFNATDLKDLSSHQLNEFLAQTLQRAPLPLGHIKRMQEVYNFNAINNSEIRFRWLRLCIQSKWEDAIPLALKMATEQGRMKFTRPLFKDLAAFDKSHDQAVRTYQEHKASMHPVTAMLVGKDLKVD
Experimental: The compounds of the invention are assessed for the ability to interact with human LTA4 hydrolase in an enzymatic assay that measures the ability of the enzyme to cleave the peptide bond of arginyl-aminomethylcoumarin (Arg-AMC). LTA4H Enzyme (1 nM final), Arg-AMC substrate (50 μM final), and compound are combined in a reaction buffer (50 mM Tris-HCl (pH 7.5), 100 mM KCl, 0.5% bovine serum albumin) at room temperature for 1 h. The formation of product is assessed by measuring the fluorescence of aminomethylcoumarin product (excitation wavelength 380 nm/emission wavelength 460 nm). In general, the preferred potency range (IC50) of compounds in the LTA4H Enzyme assay is between 0.1 nM to 10 μM, the more preferred potency range is 0.1 nM to 0.1 μM, and the most preferred potency range is 0.1 nM to 10 nM.

[2] = tested on: LTB4 synthesis in human whole blood; experiment: human whole blood (HWB) assay, inhibition of LTB4 production; assay type: cell-based; conditions: heparinized human whole blood, calcimycin 20 μM stimulation, plasma LTB4
Experimental: The compounds of the invention are additionally tested in a human whole blood (HWB) assay to determine their ability to inhibit the synthesis of LTB4 in a cellular system. Compounds are combined with heparinized human whole blood and incubated for 15 minutes at 37° C. Calcimycin (20 μM final, prepared in phosphate-buffered saline, pH 7.4) is then added and the mixture is incubated for another 30 minutes at 37° C. The samples are centrifuged for 5 min at low speed (1500×g) and the plasma layer is removed. Plasma LTB4 concentrations are then measured using an antibody-based homogenous time-resolved fluorescence method (CisBio, Bedford, Mass.). In general, the preferred potency range (IC50) of compounds in the HWB assay is between 10 nM to 10 μM, the more preferred potency range is 10 nM to 1 μM, and the most preferred potency range is 10 nM to 100 nM.

IC50 [1] [nM]	IC50 [2] [nM]	SMILES
2.8	1100	O=C(CO)N1CCCC12CCN(Cc1ccc3cc(Oc4ccc(-c5ccn[nH]5)cn4)ccc3n1)CC2 [Example 50, 2-Hydroxy-1-(8-{6-[5-(2H-pyrazol-3-yl)-pyridin-2-yloxy]-quinolin-2-ylmethyl}-1,8-diaza-spiro[4.5]dec-1-yl)-ethanone]
8.1	2200	NC(=O)[C@@H](NCc1ccc2cc(Oc3ccc(-c4ccn[nH]4)cn3)ccc2n1)c1ccccc1 [Example 51, (S)-2-Phenyl-2-({6-[5-(2H-pyrazol-3-yl)-pyridin-2-yloxy]-quinolin-2-ylmethyl}-amino)-acetamide]
0.12	66	c1cc(-c2ccc(Oc3ccc4[nH]c(CN5CCCC5)nc4c3)cc2)[nH]n1 [Example 52, 5-[4-(2H-Pyrazol-3-yl)-phenoxy]-2-pyrrolidin-1-ylmethyl-1H-benzoimidazole]
0.096	67	C[C@@H]1CN(Cc2nc3cc(Oc4ccc(-c5ccn[nH]5)cc4)ccc3[nH]2)C[C@H](C)O1 [Example 53, 2-((2R,6S)-2,6-Dimethyl-morpholin-4-ylmethyl)-5-[4-(2H-pyrazol-3-yl)-phenoxy]-1H-benzoimidazole]
0.13	94	c1cc(-c2ccc(Cc3ccc4nc(CN5CCCC5)[nH]c4c3)cc2)[nH]n1 [Example 54, 6-[4-(2H-Pyrazol-3-yl)-benzyl]-2-pyrrolidin-1-ylmethyl-1H-benzoimidazole]
0.13	100	C[C@H]1COC[C@H](C)N1Cc1nc2cc(Oc3ccc(-c4ccn[nH]4)cc3)ccc2[nH]1 [Example 55, 2-((3S,5S)-3,5-Dimethyl-morpholin-4-ylmethyl)-5-[4-(2H-pyrazol-3-yl)-phenoxy]-1H-benzoimidazole]
0.18	110	C[C@H]1CN(Cc2nc3ccc(Cc4ccc(-c5ccn[nH]5)cc4)cc3[nH]2)C[C@H](C)O1 [Example 56, 2-((2S,6S)-2,6-Dimethyl-morpholin-4-ylmethyl)-6-[4-(2H-pyrazol-3-yl)-benzyl]-1H-benzoimidazole]
0.13	110	O=C(N1CCN(Cc2nc3cc(Oc4ccc(-c5ccn[nH]5)cc4)ccc3[nH]2)CC1)C(F)(F)F [Example 57, 2,2,2-Trifluoro-1-(4-[5-[4-(2H-pyrazol-3-yl)-phenoxy]-1H-benzoimidazol-2-ylmethyl]-piperazin-1-yl)-ethanone]
0.13	120	c1cc(-c2ccc(Oc3ccc4[nH]c(CN5C[C@@H]6CC[C@@H](C5)O6)nc4c3)cc2)[nH]n1 [Example 58, (1S,5S)-3-{5-[4-(2H-Pyrazol-3-yl)-phenoxy]-1H-benzoimidazol-2-ylmethyl}-8-oxa-3-aza-bicyclo[3.2.1]octane]
0.13	130	c1cc(-c2ccc(Oc3ccc4[nH]c(C5(N6CCOCC6)CC5)nc4c3)cc2)[nH]n1 [Example 59, 2-(1-Morpholin-4-yl-cyclopropyl)-5-[4-(2H-pyrazol-3-yl)-phenoxy]-1H-benzoimidazole]
0.23	140	c1cc(-c2ccc(Cc3ccc4nc(CN5CCOCC5)[nH]c4c3)cc2)[nH]n1 [Example 60, 2-Morpholin-4-ylmethyl-6-[4-(2H-pyrazol-3-yl)-benzyl]-1H-benzoimidazole]
0.21	140	COCCN1CCN(Cc2nc3cc(Oc4ccc(-c5ccn[nH]5)cc4)ccc3[nH]2)CC1 [Example 61, 2-[4-(2-Methoxy-ethyl)-piperazin-1-ylmethyl]-5-[4-(2H-pyrazol-3-yl)-phenoxy]-1H-benzoimidazole]
0.13	150	C[C@H]1COCCN1Cc1nc2cc(Oc3ccc(-c4ccn[nH]4)cc3)ccc2[nH]1 [Example 62, 2-((S)-3-Methyl-morpholin-4-ylmethyl)-5-[4-(2H-pyrazol-3-yl)-phenoxy]-1H-benzoimidazole]
0.11	150	FC(F)(F)CN1CCN(Cc2nc3cc(Oc4ccc(-c5ccn[nH]5)cc4)ccc3[nH]2)CC1 [Example 63, 5-[4-(2H-Pyrazol-3-yl)-phenoxy]-2-[4-(2,2,2-trifluoro-ethyl)-piperazin-1-ylmethyl]-1H-benzoimidazole]
0.14	180	CC(C)N1CCN(Cc2nc3cc(Oc4ccc(-c5ccn[nH]5)cc4)ccc3[nH]2)CC1 [Example 64, 2-(4-Isopropyl-piperazin-1-ylmethyl)-5-[4-(2H-pyrazol-3-yl)-phenoxy]-1H-benzoimidazole]
0.15	180	Cc1noc(C2CCN(Cc3nc4cc(Oc5ccc(-c6ccn[nH]6)cc5)ccc4[nH]3)CC2)n1 [Example 65, 2-[4-(3-Methyl-[1,2,4]oxadiazol-5-yl)-piperidin-1-ylmethyl]-5-[4-(2H-pyrazol-3-yl)-phenoxy]-1H-benzoimidazole]
0.14	240	O[C@H]1CCN(Cc2nc3ccc(Oc4ccc(-c5ccn[nH]5)cc4)cc3[nH]2)C1 [Example 66, (S)-1-{6-[4-(2H-Pyrazol-3-yl)-phenoxy]-1H-benzoimidazol-2-ylmethyl}-pyrrolidin-3-ol]
1.4	480	O=C1CCC(c2cn3cc(Oc4ccc(-c5ccn[nH]5)cc4)ccc3n2)CN1 (stereo not drawn) [Example 67, 5-{6-[4-(2H-Pyrazol-3-yl)-phenoxy]-imidazo[1,2-a]pyridin-2-yl}-piperidin-2-one]
4.2	590	O=C1CC[C@H](Oc2ccc3cc(Oc4ccc(-c5ccn[nH]5)cc4)ccc3n2)CN1 [Example 68, (S)-5-{6-[4-(2H-Pyrazol-3-yl)-phenoxy]-quinolin-2-yloxy}-piperidin-2-one]
3.9	650	O=C(O)c1nc2cc(Oc3ccc(-c4cc[nH]n4)cc3)ccc2[nH]1 [Example 69, 5-[4-(1H-Pyrazol-3-yl)-phenoxy]-1H-benzoimidazole-2-carboxylic acid]
0.16	230	CC(C)(C)C(=O)N1CCN(Cc2nc3cc(Oc4ccc(-c5ccn[nH]5)cc4)ccc3[nH]2)CC1 [Example 70, 2,2-Dimethyl-1-(4-{5-[4-(2H-pyrazol-3-yl)-phenoxy]-1H-benzoimidazol-2-ylmethyl}-piperazin-1-yl)-propan-1-one]
0.14	260	OC(C1CCN(Cc2nc3cc(Oc4ccc(-c5ccn[nH]5)cc4)ccc3[nH]2)CC1)C(F)(F)F (stereo not drawn) [Example 71, 2,2,2-Trifluoro-1-(1-{5-[4-(2H-pyrazol-3-yl)-phenoxy]-1H-benzoimidazol-2-ylmethyl}-piperidin-4-yl)-ethanol]
0.14	320	c1cc(-c2ccc(Oc3ccc4[nH]c(CN5CC6(COC6)C5)nc4c3)cc2)[nH]n1 [Example 72, 2-(2-Oxa-6-aza-spiro[3.3]hept-6-ylmethyl)-5-[4-(2H-pyrazol-3-yl)-phenoxy]-1H-benzoimidazole]
0.36	330	c1cncc(Cc2nc3cc(Oc4ccc(-c5ccn[nH]5)cc4)ccc3[nH]2)c1 [Example 73, 5-[4-(2H-Pyrazol-3-yl)-phenoxy]-2-pyridin-3-ylmethyl-1H-benzoimidazole]
0.099	67	CC[C@H](C)N(C)Cc1nc2cc(Oc3ccc(-c4ccn[nH]4)cc3)ccc2[nH]1 [Example 74, ((S)-sec-butyl)-methyl-{5-[4-(2H-pyrazol-3-yl)-phenoxy]-1H-benzoimidazol-2-ylmethyl}-amine]
0.24	84	c1cc(-c2ccc(Oc3ccc4c(cnn4CCN4CCCC4)c3)cc2)[nH]n1 [Example 75, 5-[4-(2H-pyrazol-3-yl)-phenoxy]-1-(2-pyrrolidin-1-yl-ethyl)-1H-indazole]
0.2	87	CN(Cc1nc2cc(Oc3ccc(-c4ccn[nH]4)cc3)ccc2[nH]1)C[C@@H]1CCCO1 [Example 76, Methyl-{5-[4-(2H-pyrazol-3-yl)-phenoxy]-1H-benzoimidazol-2-ylmethyl}-[(S)-1-(tetrahydro-furan-2-yl)methyl]-amine]
